Values after ≈ are worked out from the molar mass of the structure shown.
Assay: Water solubility of KTZ in aqueous suspension without polymer
Assay type: physicochemical
Settings: kinetic from dmso stock, aqueous suspension after precipitation from alcoholic solution, no polymer
Method: The selection of the appropriate Ketoconazole:polymer ratio (w/w) which is needed to dissolve drug crystals and to obtain homogeneous nanoparticles free from drug crystals was firstly optimized. For that purpose, 200 mg of KTZ were resuspended in different volumes of both absolute ethanol (10, 15 and 20 mL) as control solution or in the same volumes of GANTREZ® ES 425 ethanolic solution (50 mg/mL). GANTREZ® ES nanoparticles were produced by the addition of the corresponding volume of bidistilled water (2:1 (v/v) water/polymer solution) to GANTREZ® ES alcoholic solutions containing KTZ. […] Finally, the aqueous suspensions of KTZ-loaded GANTREZ® ES nanoparticles and KTZ aqueous suspension without the polymer were collected for further characterization and drug content quantification.
The amount of encapsulated drug in the nanoparticles was assayed by UV spectrophotometry at 257 nm (Shimadzu 1203 UV-VIS). In order to quantify the amount of KTZ in the nanoparticles suspension or free KTZ suspension without the polymer GANTREZ® ES), all samples of fleshly prepared formulations were evaporated under reduced pressure to eliminate ethanol, and then 1 mL of triplicate samples were centrifuged at 20,000 rpm for 25 min. […]

solubility: ~11 µg/mL (≈ 20.7 µM)
Compound: CC(=O)N1CCN(c2ccc(OCC3COC(Cn4ccnc4)(c4ccc(Cl)cc4Cl)O3)cc2)CC1 (stereo not shown) [KTZ, Ketoconazole]

Reference: patent US9351940B2, “Nanoparticles comprising esters of poly (methyl vinyl ether-co-maleic anhydride) and uses thereof” (priority 2011, dated 2016)
